Test results published in patent publication US20230167073A1 (Teijin Pharma Limited, priority 2020, published 2023).

Molecular target: T1, Human TRPC6 (Homo sapiens, UniProt Q9Y210)
T1 construct: expressed in transfected cells
T1 sequence (Q9Y210 1-931): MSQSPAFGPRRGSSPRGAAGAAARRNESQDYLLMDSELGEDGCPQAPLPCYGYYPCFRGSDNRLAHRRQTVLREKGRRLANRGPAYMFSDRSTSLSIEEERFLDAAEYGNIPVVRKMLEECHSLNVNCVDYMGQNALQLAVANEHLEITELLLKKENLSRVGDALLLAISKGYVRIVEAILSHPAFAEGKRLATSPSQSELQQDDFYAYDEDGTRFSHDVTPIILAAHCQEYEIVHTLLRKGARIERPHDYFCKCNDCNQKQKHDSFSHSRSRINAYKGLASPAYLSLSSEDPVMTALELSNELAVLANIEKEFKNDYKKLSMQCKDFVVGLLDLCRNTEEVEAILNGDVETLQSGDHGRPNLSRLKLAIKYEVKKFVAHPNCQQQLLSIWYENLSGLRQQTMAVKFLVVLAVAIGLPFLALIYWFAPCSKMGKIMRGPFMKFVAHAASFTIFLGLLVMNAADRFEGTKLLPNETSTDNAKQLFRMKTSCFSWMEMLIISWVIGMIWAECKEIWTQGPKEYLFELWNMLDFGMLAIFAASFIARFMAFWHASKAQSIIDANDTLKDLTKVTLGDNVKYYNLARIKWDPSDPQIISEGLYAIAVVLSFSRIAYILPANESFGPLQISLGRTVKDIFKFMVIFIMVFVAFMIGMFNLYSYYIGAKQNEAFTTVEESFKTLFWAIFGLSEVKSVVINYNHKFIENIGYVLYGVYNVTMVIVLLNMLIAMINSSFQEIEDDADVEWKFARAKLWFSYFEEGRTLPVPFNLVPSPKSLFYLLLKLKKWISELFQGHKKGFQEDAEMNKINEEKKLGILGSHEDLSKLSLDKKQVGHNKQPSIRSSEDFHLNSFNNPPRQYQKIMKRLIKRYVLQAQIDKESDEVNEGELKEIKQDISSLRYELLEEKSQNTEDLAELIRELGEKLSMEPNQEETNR
Experiment: Evaluation of TRPC6 channel inhibitory activity (1), FLIPR Calcium 5 Assay Kit, OAG stimulation (Compound Nos. 1-1293)
Assay type: cell-based
Conditions: Human TRPC6 stably-expressing cells, OAG 30 μM, FLIPR Calcium 5 Assay Kit; read-out: Inhibitory activity (pIC50 class) (converted)
In short: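 Stable human TRPC6 line; fluorescent Ca2+ dye loading, then 20 min compound exposure before 30 μM OAG trigger. Peak-minus-baseline signal converted to % inhibition against untreated and unstimulated wells; potency given as pIC50 band.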

IC50 [nM]	SMILES
< 10	Cc1nn(CC(F)(F)F)cc1Oc1cc(F)ccc1-c1ncc(CCN)cn1 [compound 968, 2-[2-[4-fluoro-2-[3-methyl-1-(2,2,2-trifluoroethyl)pyrazol-4-yl]oxyphenyl]pyrimidin-5-yl]ethanamine]
> 1000	Cc1nc(Oc2cc(C#N)ccc2-n2cc(C(=O)CN)cn2)cc(-c2ccccc2)n1 [Compound 146, 4-[4-(2-aminoacetyl)pyrazol-1-yl]-3-(2-methyl-6-phenylpyrimidin-4-yl)oxybenzonitrile]
> 1000	Cc1nc(OCC2CC2(F)F)cc(Oc2cc(C#N)ccc2-c2ncc(CN)cn2)n1 (centres unmarked) [compound 847, 4-[5-(aminomethyl)pyrimidin-2-yl]-3-[6-[(2,2-difluorocyclopropyl)methoxy]-2-methylpyrimidin-4-yl]oxybenzonitrile]
< 10	Cn1nc(N2CCOCC2)cc1C(=O)c1cc(F)ccc1-c1ccc(CCN)cn1 [compound 1106, [2-[5-(2-aminoethyl)pyridin-2-yl]-5-fluorophenyl]-(2-methyl-5-morpholin-4-ylpyrazol-3-yl)methanone]
10 to 1000	CC(C)(C)n1nc(C2CC2)cc1Oc1cc(C#N)ccc1-c1ccc(C(O)CN)cn1 (centres unmarked) [compound 368, 4-[5-(2-amino-1-hydroxyethyl)pyridin-2-yl]-3-(2-tert-butyl-5-cyclopropylpyrazol-3-yl)oxybenzonitrile]
10 to 1000	Cn1nc(C2CC2)cc1Oc1cc(C#N)ccc1-c1ccc(C(N)CO)cn1 (centres unmarked) [compound 421, 4-[5-(1-amino-2-hydroxyethyl)pyridin-2-yl]-3-(5-cyclopropyl-2-methylpyrazol-3-yl)oxybenzonitrile]
> 1000	Cc1cc(-c2ccccc2)nn1Cc1cc(C#N)ccc1-c1ccc(CCN)cn1 [compound 1158, 4-[5-(2-aminoethyl)pyridin-2-yl]-3-[(5-methyl-3-phenylpyrazol-1-yl)methyl]benzonitrile]
< 10	Cn1nc(C2CC2)cc1Oc1cc(C#N)ccc1-c1ncc([C@@H](O)CN)cn1 [compound 372, 4-[5-[(1R)-2-amino-1-hydroxyethyl]pyrimidin-2-yl]-3-(5-cyclopropyl-2-methylpyrazol-3-yl)oxybenzonitrile]
> 1000	Cn1nc(-c2ccccn2)cc1Oc1cc(C#N)cnc1-c1ncc(CN)cn1 [compound 1287, 6-[5-(aminomethyl)pyrimidin-2-yl]-5-(2-methyl-5-pyridin-2-ylpyrazol-3-yl)oxypyridine-3-carbonitrile]
> 1000	Cc1cc(Oc2cc(C#N)ccc2-c2nnc(CN)s2)cc(N2CCOCC2)n1 [compound 593, 4-[5-(aminomethyl)-1,3,4-thiazol-2-yl]-3-(2-methyl-6-morpholin-4-ylpyridin-4-yl)oxybenzonitrile]
< 10	Cn1nc(C2CCOCC2)cc1Oc1cc(F)ccc1-c1ccc(CCN)cn1 [compound 1010, 2-[6-[4-fluoro-2-[2-methyl-5-(oxan-4-yl)pyrazol-3-yl]oxyphenyl]pyridin-3-yl]ethanamine]
10 to 1000	Cc1nc(Oc2cc(C#N)ccc2-c2cnc(C(O)CN)s2)cc(-c2ccccc2)n1 (centres unmarked) [Compound 263, 4-[2-(2-amino-1-hydroxyethyl)-1,3-thiazol-5-yl]-3-(2-methyl-6-phenylpyrimidin-4-yl)oxybenzonitrile]
< 10	N#Cc1ccc(-c2ccc(CN)cn2)c(Oc2cnnc(N3CCCC3)c2)c1 [compound 696, 4-[5-(aminomethyl)pyridin-2-yl]-3-(6-pyrrolidin-1-ylpyridazin-4-yl)oxybenzonitrile]
< 10	Cn1nc(-c2ccccn2)cc1Oc1cc(F)ccc1-c1ncc(CCN)cn1 [compound 977, 2-[2-[4-fluoro-2-(2-methyl-5-pyridin-2-ylpyrazol-3-yl)oxyphenyl]pyrimidin-5-yl]ethanamine]
10 to 1000	CC(C)Cn1cc(Oc2cc(F)ccc2-c2ncc(CCN)cn2)cn1 [compound 982, 2-[2-[4-fluoro-2-[1-(2-methylpropyl)pyrazol-4-yl]oxyphenyl]pyrimidin-5-yl]ethanamine]
> 1000	Cc1nc(C2CCOCC2)cn1Cc1cc(C#N)ccc1-c1ncc([C@H](O)CN)cn1 [compound 1166]

Second part, the compound before the results:

SMILES	IC50 [nM]
Cn1nc(-c2ccc(F)cn2)cc1Oc1cc(C#N)ccc1-c1ncc(CN)cn1 [compound 651, 4-[5-(aminomethyl)pyrimidin-2-yl]-3-[5-(5-fluoropyridin-2-yl)-2-methylpyrazol-3-yl]oxybenzonitrile]	< 10
N#Cc1ccc(-c2ccc(CCN)cn2)c(C(=O)c2nnc(N3CCOCC3)s2)c1 [compound 1094, 4-[5-(2-aminoethyl)pyridin-2-yl]-3-(5-morpholin-4-yl-1,3,4-thiadiazole-2-carbonyl)benzonitrile]	10 to 1000
CN(C)c1cc(Oc2cc(C#N)ccc2-c2ncc([C@H](F)CN)cn2)n(C)n1 [compound 905, 4-[5-[(1S)-2-amino-1-fluoroethyl]pyrimidin-2-yl]-3-[5-(dimethylamino)-2-methylpyrazol-3-yl]oxybenzonitrile]	< 10
Cc1cc(Oc2cc(C#N)ccc2-c2ccc([C@H](O)CN)cn2)cc(-c2nccs2)n1 [compound 689, 4-[5-[(1S)-2-amino-1-hydroxyethyl]pyridin-2-yl]-3-[2-methyl-6-(1,3-thiazol-2-yl)pyridin-4-yl]oxybenzonitrile]	10 to 1000
Cc1nc(-c2cc(Oc3cc(C#N)ccc3-c3ncc(CN)cn3)n(C)n2)cn1C [compound 933, 4-[5-(aminomethyl)pyrimidin-2-yl]-3-[5-(1,2-dimethylimidazol-4-yl)-2-methylpyrazol-3-yl]oxybenzonitrile]	> 1000
Cn1nc(C2CCCO2)cc1Oc1cc(C#N)ccc1-c1ccc(CCN)cn1 (centres unmarked) [compound 484, 4-[5-(2-aminoethyl)pyridin-2-yl]-3-[2-methyl-5-(oxolan-2-yl)pyrazol-3-yl]oxybenzonitrile]	< 10
N#Cc1ccc(-c2ncc(CCN)cn2)c(Cn2cncc2-c2ccccc2)c1 [compound 1134, 4-[5-(2-aminoethyl)pyrimidin-2-yl]-3-[(5-phenylimidazol-1-yl)methyl]benzonitrile]	> 1000
Cc1nc(-c2cccc(F)c2)cn1Cc1cc(C#N)ccc1-c1ccc([C@H](O)CN)cn1 [compound 1161, 4-[5-[(1S)-2-amino-1-hydroxyethyl]pyridin-2-yl]-3-[[4-(3-fluorophenyl)-2-methylimidazol-1-yl]methyl]benzonitrile]	10 to 1000
CC(C)n1cc(Oc2cc(F)ccc2-c2ncc(CCN)cn2)cn1 [compound 981, 2-[2-[4-fluoro-2-(1-propan-2-ylpyrazol-4-yl)oxyphenyl]pyrimidin-5-yl]ethanamine]	10 to 1000
Cc1nc(Oc2cc(C#N)ccc2-n2cc([C@@H](O)CN)cn2)cc(N2CCC(C(C)C)CC2)n1 [Compound 234, 4-[4-[(1R)-2-amino-1-hydroxyethyl]pyrazol-1-yl]-3-[2-methyl-6-(4-propan-2-ylpiperidin-1-yl)pyrimidin-4-yl]oxybenzonitrile]	> 1000
Cc1nc(Oc2cc(C#N)ccc2-n2cc(C(O)C(C)(C)N)cn2)cc(N2CCOCC2)n1 (centres unmarked) [compound 302, 4-[4-(2-amino-1-hydroxy-2-methylpropyl)pyrazol-1-yl]-3-(2-methyl-6-morpholin-4-ylpyrimidin-4-yl)oxybenzonitrile]	10 to 1000
CC(C)Cn1cc(Oc2cc(Cl)ccc2-c2ncc(CCN)cn2)cn1 [compound 1021, 2-[2-[4-chloro-2-[1-(2-methylpropyl)pyrazol-4-yl]oxyphenyl]pyrimidin-5-yl]ethanamine]	10 to 1000
Cc1nc(OCC(F)(F)F)cc(Oc2cc(C#N)ccc2-c2ncc(CN)cn2)n1 [compound 893, 4-[5-(aminomethyl)pyrimidin-2-yl]-3-[2-methyl-6-(2,2,2-trifluoroethoxy)pyrimidin-4-yl]oxybenzonitrile]	> 1000
Cn1nc(-c2ccccn2)cc1Oc1cc(C#N)ccc1-c1ccc(CCN)cc1 [Compound 160, 4-[4-(2-aminoethyl)phenyl]-3-(2-methyl-5-pyridin-2-ylpyrazol-3-yl)oxybenzonitrile]	< 10
Cn1nc(N2CCOCC2)cc1Oc1cc(C#N)ccc1-c1ccc(CCN)cn1 [compound 485, 4-[5-(2-aminoethyl)pyridin-2-yl]-3-(2-methyl-5-morpholin-4-ylpyrazol-3-yl)oxybenzonitrile]	< 10
Cc1nc(Oc2cc(C#N)ccc2-c2ncc(CN)cn2)cc(N2CCO[C@@H](C)C2)n1 [compound 708, 4-[5-(aminomethyl)pyrimidin-2-yl]-3-[2-methyl-6-[(2S)-2-methylmorpholin-4-yl]pyrimidin-4-yl]oxybenzonitrile]	< 10
